Data on seven molecules can be found in ChEMBL document CHEMBL1152924, “Synthetic staurosporines via a ring closing metathesis strategy as potent JAK3 inhibitors and modulators of allergic responses” (Bioorg Med Chem Lett, 2009).

pIC50: −log10 of the molar value.

One assay deals with Jurkat. Description: Antiproliferative activity against JAK3 expressing human resting Jurkat cells. The assay is classed as functional, cell-based.
In general, pIC50 refers to the IC50 on a negative log10 scale, so that one unit is a factor of ten. For `O=C1NC(=O)c2c1c1c3ccccc3n3c1c1c2c2ccccc2n1C[C@H](O)[C@H](O)C3`, the pIC50 was less than 5.00.

`O=C1NC(=O)c2c1c1c3ccccc3n3c1c1c2c2ccccc2n1CC(O)CCC3` (stereo unspecified) had a pIC50 of less than 5.00.

For the molecule `O=C1NC(=O)c2c1c1c3ccccc3n3c1c1c2c2ccccc2n1C[C@@](O)(C(=O)O)[C@H](O)C3` (relative stereo), the pIC50 is less than 5.00.

As for `O=C1NC(=O)c2c1c1c3ccccc3n3c1c1c2c2ccccc2n1C[C@@H](O)[C@@H](O)CC3` (relative stereo), the pIC50 was less than 5.00.

Regarding `O=C1NCc2c1c1c3ccccc3n3c1c1c2c2ccccc2n1CC[C@@H](O)[C@@H](O)CC3` (relative stereo), the pIC50 is 6.21.

The next assay has as its system Jurkat. Put plainly: Antiproliferative activity against JAK3 expressing IL2-stimulated human Jurkat cells. The class given is functional, cell-based.
With `O=C1NC(=O)c2c1c1c3ccccc3n3c1c1c2c2ccccc2n1C[C@H](O)[C@H](O)C3`, the pIC50 was 7.32.

`O=C1NC(=O)c2c1c1c3ccccc3n3c1c1c2c2ccccc2n1CC(O)CCC3` (stereo unspecified) showed a pIC50 of 5.54.

In turn, `O=C1NC(=O)c2c1c1c3ccccc3n3c1c1c2c2ccccc2n1C[C@@](O)(C(=O)O)[C@H](O)C3` (relative stereo) had a pIC50 of 6.65.

In the case of `O=C1NC(=O)c2c1c1c3ccccc3n3c1c1c2c2ccccc2n1C[C@@H](O)[C@@H](O)CC3` (relative stereo), the pIC50 is 6.64.

Turning to `O=C1NCc2c1c1c3ccccc3n3c1c1c2c2ccccc2n1CC[C@@H](O)[C@@H](O)CC3` (relative stereo), the pIC50 is 7.35.

A further assay concerns the target T1, Tyrosine-protein kinase JAK3 (Homo sapiens, UniProt P52333).
T1 sequence (P52333 whole entry): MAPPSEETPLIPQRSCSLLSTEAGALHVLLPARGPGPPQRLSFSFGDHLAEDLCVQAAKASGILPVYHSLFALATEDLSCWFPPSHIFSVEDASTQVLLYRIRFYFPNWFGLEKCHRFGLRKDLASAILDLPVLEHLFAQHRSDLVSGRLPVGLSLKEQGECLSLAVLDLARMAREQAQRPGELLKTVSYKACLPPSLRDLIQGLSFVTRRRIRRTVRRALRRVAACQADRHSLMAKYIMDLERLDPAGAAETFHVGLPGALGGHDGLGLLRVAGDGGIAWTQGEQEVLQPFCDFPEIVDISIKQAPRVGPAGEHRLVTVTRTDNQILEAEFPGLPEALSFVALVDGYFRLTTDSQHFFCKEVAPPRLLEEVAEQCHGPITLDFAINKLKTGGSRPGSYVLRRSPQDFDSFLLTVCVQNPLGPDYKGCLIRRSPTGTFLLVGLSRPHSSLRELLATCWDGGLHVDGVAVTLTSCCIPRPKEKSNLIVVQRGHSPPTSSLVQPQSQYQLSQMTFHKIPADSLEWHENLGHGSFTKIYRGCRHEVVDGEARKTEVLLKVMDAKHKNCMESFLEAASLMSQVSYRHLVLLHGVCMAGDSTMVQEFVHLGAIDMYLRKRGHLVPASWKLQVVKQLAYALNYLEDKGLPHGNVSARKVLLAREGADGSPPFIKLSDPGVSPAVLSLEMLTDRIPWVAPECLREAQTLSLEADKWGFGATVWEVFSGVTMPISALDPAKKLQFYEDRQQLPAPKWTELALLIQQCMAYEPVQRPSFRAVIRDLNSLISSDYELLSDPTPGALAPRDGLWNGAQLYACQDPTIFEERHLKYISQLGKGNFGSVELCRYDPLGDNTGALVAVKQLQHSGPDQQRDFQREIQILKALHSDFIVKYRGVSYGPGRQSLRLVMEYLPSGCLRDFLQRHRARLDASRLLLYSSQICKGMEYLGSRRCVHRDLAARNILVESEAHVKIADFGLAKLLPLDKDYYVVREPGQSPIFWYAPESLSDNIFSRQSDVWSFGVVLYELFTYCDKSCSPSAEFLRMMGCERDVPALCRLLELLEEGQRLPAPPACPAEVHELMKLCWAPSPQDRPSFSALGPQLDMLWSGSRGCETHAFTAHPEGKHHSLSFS
Description: Inhibition of JAK3 expressed in insect Sf21 cells assessed as inhibition of biotinylated substrate phosphorylation.
Turning to `O=C1NC(=O)c2c1c1c3ccccc3n3c1c1c2c2ccccc2n1C[C@H](O)[C@H](O)C3`, the pIC50 is 8.52.

For the molecule `C=CCn1c2ccccc2c2c3c(c4c5ccccc5n(CC=C)c4c21)C(=O)NC3`, the pIC50 is less than 6.70.

`O=C1NC(=O)c2c1c1c3ccccc3n3c1c1c2c2ccccc2n1C[C@@](O)(C(=O)O)[C@H](O)C3` (relative stereo): the pIC50 is 8.05.

On to `O=C1NC(=O)c2c1c1c3ccccc3n3c1c1c2c2ccccc2n1C[C@@H](O)[C@@H](O)CC3` (relative stereo), for which the pIC50 is 8.05.

Consider `O=C1NCc2c1c1c3ccccc3n3c1c1c2c2ccccc2n1CC[C@@H](O)[C@@H](O)CC3` (relative stereo), for which the pIC50 was 7.92.

Turning to `O=C1NCc2c1c1c3ccccc3[nH]c1c1[nH]c3ccccc3c21` [STAUROSPORINONE], the pIC50 is 7.21.
